Test results from paper PMC13195669, “GPR3 Ligands Discovered through Combined Virtual and Conformational Biosensor-Based Screening” (Journal of the American Chemical Society, 2026).
pEC50: −log10 of the molar value.

Molecular target: T1, GPR3 (Homo sapiens, UniProt P46089, INS231ASEIGTGFPFDPHYVEVLGERMHYVDVGPRDGTPVLFLHGNPTSSYVWRNIIPHVAPTHRCIAPDLIGMGKSDKPDLGYFFDDHVRFMDAFIEALGLEEVVLVIHDWGSALGFHWAKRNPERVKGIAFMEFIRPIPTWDEWPEFARETFQAFRTTDVGRKLIIDQNVFIEGTLPMGVVRPLTEVEMDHYREPFLNPVDREPLWRFPNELPIAGEPANIVALVEEYMDWLHQSPVPKLLFWGTPGVLIPPAEAARLAKSLPNCKAVDIGPGLNLLQEDNPDLIGSEIARWLSTLEISGGS)
T1 construct: ligated to the full-length C-terminus; expressed in transfected cells; some experiments transient
T1 sequence (P46089 with tags, fused parts or gaps with the stated changes): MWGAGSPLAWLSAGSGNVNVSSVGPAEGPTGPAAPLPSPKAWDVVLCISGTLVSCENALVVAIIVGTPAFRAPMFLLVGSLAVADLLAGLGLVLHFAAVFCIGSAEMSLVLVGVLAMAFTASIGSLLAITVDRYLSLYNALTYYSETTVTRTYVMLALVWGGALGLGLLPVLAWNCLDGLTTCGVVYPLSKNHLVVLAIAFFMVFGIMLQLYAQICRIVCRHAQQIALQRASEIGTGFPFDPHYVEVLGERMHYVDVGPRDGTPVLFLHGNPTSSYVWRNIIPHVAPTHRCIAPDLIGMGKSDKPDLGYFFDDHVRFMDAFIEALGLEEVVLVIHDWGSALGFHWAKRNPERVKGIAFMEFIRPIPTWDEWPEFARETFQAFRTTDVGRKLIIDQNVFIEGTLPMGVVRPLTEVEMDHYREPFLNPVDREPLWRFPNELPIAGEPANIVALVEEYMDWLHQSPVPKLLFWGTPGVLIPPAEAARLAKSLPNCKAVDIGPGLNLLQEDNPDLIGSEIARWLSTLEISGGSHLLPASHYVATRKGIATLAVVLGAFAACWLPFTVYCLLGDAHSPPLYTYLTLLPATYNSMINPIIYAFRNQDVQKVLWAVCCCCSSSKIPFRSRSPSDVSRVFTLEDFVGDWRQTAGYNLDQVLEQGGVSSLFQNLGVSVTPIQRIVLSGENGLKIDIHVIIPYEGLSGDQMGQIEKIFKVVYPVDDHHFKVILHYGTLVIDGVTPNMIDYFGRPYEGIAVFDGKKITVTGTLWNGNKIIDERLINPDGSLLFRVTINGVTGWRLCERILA
Assay: BRET-based conformational GPR3 biosensor (GPR3-HaloTag/Nluc) in HEK293A cells
Assay type: cell-based
Conditions: for pEC50: HEK293A cells stably expressing the biosensor, read-out: EC50 at GPR3-HaloTag/Nluc
Source text: To develop a conformational GPR3 biosensor that can be used in a microtiter well plate format, we employed the intramolecular BRET design previously validated for several GPCRs. − The BRET donor NanoLuc was fused to the receptor’s full-length C-terminus and the self-labeling protein tag, HaloTag, was inserted into GPR3′s third intracellular loop between amino acids Arg231 and His232 (Figure a; sequence in Figure S1). […]
Plasmids and molecular cloning […]
Plasmids encoding the conformational biosensors α2AAR- and β2AR-HaloTag/Nluc9 and the Gs heterotrimer dissociation sensor10 were previously described. The expression plasmid encoding N-terminally HA-tagged GPR3 (cat. no.
#GPR003TN00) on a pcDNA3.1+ vector was obtained from the cDNA resource center (cdna.org). The Nluc and HaloTag in-serts were amplified with overhanging restriction sites from β2AAR- HaloTag/Nluc and ligated to the full-length C-terminus or inserted into icl3 of GPR3, respectively, to obtain the conformational biosensor GPR3-HaloTag/Nluc. Point mutants of GPR3-HaloTag/Nluc were generated using the GeneArt Site-directed Mutagenesis System (Thermo Fisher Scientific). All con-structs were verified by sequencing (Eurofins genomics). […]
serum albumin (BSA) were obtained from Sigma Aldrich (Merck KGaA). Dulbecco's Modified Eagle's Medium (DMEM), Dul- […]
Diphenyleneiodonium chloride (DPI) and AF64394 were purchased from Tocris (Bio -Techne). The TMB (3, 3', 5, 5' tetramethyl benzidine) substrate reagent set was […]
were obtained in a single kit from Promega (cat. no. N1662). D-luciferin-sodium and the S1PR1 agonist III were from Med-ChemExpress. The Rluc substrate coelenterazine 400a was from NanoLight Technology (cat. no. 340 -10). White -wall, white - bottomed 96 -well, black -wall, black bottomed and transparent 96 -well microtiter plates were from Brand.
HEK293A cells were used for transient transfection and grown in Dulbecco’s modified Eagle’s medium (DMEM) supplemented with 2 mM glutamine, 10 % fetal calf serum, streptomycin (0.1 mg/mL), and penicillin (100 U/mL) at 37 °C with 5 % CO2. For the generation of stable GPR3 -HaloTag/Nluc cells, HEK293A cells grown in T75 flasks were transfected at a confluence of 40 – […]
Absence of mycoplasma contamination was routinely
Transient transfection and plating
Resuspended cells (300,000 cells/mL) were transfected in suspension with a total of 1 μg DNA/mL suspension using PEI (1 mg/ml stock solution; 3 μL PEI solution per μg DNA). […]
Cells mixed with the transfection reagents were seeded onto poly-D-lysine–precoated, 96-well plates and grown for 48 h at 37 °C with 5 % CO2. Stable α2AAR-, β2AR- or GPR3-HaloTag/Nluc expressing cells were seeded 24 h before the experi-ment at a density of 800,000 cells/mL into white 96-well plates. To monitor changes in BRET in with conformational GPCR […]
experiment. White plates were used for BRET and luminescence measurements, black plates for FRET experiments and trans-parent plates for absorbance-based quantification of receptor surface expression levels.

N=c1n(Cc2ccccc2)c2ccccc2n1CC(O)COc1ccc(Cl)cc1 (stereo not shown) [compound 52]
pEC50: 4.60

N=c1n(Cc2ccccc2)c2ccccc2n1CC1CC1 [compound 33]
effect of preincubation on OEA and oleamide potency in GPR3 conformation assay (30 µM preincubation): reduced potency of OEA, but not oleamide
pEC50: 5.30

Cc1ccc(NC(=O)CN2CCN(C(=O)CCc3ccc(Cl)cc3)CC2)cc1 [compound 115]
pEC50: 4.07
